The results in this text go back to patent US12030878B2 (BRISTOL-MYERS SQUIBB COMPANY, priority 2017, dated 2024).

Holding throughout (assay type): cell-based
One assay deals with T1, human TLR7 (Homo sapiens, UniProt Q9NYK1).
T1 construct: host or cells: HEK-Blue cells
T1 sequence (Q9NYK1 27-1049): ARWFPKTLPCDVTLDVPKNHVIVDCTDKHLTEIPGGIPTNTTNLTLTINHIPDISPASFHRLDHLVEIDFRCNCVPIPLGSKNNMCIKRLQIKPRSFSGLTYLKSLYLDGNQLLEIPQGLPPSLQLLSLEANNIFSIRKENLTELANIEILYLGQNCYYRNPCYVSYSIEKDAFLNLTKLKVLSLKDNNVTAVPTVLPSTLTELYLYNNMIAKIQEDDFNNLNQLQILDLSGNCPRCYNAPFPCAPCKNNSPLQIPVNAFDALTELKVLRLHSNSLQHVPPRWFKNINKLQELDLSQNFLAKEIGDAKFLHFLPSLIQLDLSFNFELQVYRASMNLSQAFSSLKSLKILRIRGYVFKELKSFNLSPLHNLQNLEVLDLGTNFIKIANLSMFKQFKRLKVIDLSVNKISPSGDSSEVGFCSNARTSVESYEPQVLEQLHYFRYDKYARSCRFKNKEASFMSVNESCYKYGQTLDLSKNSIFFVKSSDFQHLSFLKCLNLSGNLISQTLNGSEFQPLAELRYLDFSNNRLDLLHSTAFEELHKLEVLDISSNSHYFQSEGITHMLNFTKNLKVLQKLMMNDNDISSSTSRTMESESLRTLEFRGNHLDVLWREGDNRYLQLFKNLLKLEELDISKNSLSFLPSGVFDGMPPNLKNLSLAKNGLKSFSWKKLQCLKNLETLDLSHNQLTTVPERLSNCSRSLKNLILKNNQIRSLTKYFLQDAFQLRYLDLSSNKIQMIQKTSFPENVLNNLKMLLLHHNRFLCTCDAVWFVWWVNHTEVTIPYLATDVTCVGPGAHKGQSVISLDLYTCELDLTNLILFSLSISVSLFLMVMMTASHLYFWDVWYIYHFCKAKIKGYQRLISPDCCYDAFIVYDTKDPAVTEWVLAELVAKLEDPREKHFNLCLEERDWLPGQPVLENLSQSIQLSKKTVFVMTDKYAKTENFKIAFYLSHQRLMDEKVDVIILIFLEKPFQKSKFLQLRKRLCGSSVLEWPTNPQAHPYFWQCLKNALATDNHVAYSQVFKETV
Description: TLR7 inhibition reporter assay (HEK-Blue SEAP). To be noted: HEK-Blue cells overexpressing human TLR7, stimulated with gardiquimod 7.5 μM, 22 hour incubation. The essentials:
(§1)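 HEK-Blue cells with NF-κB/AP-1-driven SEAP reporter; compounds 0.05 nM-50 μM, 30 min pre-treatment at room temperature, then agonist: gardiquimod 7.5 μM (TLR7), R848 15.9 μM (TLR8) or ODN2006 5 nM (TLR9). SEAP read after 22 h at 37 °C; percent inhibition versus agonist-plus-DMSO and reference-inhibitor wells.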
A general note: Reporter assays use an easily measured gene product as a stand-in for the process of interest.

The next assay has as its target T2, human TLR8 (Homo sapiens, UniProt Q9NR97).
T2 construct: host or cells: HEK-Blue cells
T2 sequence (Q9NR97 27-1041): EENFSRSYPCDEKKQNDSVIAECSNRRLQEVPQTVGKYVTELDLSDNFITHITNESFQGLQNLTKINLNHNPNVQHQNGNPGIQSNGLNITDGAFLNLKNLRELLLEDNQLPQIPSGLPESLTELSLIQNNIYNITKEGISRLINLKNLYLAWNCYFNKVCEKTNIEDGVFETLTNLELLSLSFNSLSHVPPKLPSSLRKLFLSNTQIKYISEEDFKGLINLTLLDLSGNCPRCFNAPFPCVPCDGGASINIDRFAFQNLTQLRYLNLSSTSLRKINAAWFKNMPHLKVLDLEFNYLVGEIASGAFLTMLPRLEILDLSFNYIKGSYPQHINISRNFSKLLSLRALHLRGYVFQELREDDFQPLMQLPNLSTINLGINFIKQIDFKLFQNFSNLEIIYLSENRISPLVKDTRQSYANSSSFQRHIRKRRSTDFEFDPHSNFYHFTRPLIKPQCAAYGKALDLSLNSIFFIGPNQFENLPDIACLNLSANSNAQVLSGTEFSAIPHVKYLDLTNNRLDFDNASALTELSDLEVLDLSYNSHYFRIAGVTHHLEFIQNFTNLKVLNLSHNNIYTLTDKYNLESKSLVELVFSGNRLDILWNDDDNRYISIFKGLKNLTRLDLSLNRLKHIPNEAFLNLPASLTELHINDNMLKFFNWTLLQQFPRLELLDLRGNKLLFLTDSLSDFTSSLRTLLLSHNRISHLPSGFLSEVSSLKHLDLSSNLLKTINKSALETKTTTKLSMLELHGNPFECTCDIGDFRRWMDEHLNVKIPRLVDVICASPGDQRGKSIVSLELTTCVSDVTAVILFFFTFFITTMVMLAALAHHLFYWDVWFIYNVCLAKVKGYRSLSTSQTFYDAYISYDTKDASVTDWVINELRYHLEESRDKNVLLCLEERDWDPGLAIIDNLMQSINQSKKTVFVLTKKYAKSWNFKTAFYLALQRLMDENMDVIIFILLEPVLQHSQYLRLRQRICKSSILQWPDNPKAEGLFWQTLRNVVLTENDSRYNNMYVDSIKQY
The experiment in a line: TLR8 inhibition reporter assay (HEK-Blue SEAP). To be noted: HEK-Blue cells overexpressing human TLR8, stimulated with R848 15.9 μM, 22 hour incubation. An outline of the steps: as §1

The target of another assay is T3, human TLR9 (Homo sapiens, UniProt Q9NR96).
T3 construct: host or cells: HEK-Blue cells
T3 sequence (Q9NR96 26-1032): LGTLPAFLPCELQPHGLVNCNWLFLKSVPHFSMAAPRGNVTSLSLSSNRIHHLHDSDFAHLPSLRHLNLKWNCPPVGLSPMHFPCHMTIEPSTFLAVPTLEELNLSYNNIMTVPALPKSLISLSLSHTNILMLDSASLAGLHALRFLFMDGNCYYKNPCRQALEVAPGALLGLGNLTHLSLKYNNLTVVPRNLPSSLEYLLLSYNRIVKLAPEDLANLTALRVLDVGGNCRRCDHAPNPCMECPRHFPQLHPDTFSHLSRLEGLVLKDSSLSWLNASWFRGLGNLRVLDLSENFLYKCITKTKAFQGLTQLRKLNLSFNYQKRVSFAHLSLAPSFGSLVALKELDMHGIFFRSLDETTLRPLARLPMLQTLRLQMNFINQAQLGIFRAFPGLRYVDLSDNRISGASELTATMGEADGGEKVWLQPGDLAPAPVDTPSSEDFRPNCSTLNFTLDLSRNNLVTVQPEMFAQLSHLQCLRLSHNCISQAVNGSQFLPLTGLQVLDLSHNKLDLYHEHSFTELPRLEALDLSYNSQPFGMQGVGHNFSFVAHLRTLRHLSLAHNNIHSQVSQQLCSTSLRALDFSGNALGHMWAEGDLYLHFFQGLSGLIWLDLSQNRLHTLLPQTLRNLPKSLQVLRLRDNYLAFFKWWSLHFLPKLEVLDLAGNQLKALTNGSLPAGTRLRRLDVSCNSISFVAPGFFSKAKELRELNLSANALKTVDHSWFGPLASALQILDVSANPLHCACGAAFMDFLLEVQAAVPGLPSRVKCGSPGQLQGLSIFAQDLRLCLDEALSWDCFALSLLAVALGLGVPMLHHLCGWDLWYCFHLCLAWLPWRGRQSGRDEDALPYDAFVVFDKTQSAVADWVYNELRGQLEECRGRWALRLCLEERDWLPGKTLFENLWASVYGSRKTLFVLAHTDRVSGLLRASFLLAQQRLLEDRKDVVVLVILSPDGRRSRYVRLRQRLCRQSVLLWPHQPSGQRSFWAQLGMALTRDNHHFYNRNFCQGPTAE
The experiment in a line: TLR9 inhibition reporter assay (HEK-Blue SEAP). To be noted: HEK-Blue cells overexpressing human TLR9, stimulated with ODN2006 5 nM, 22 hour incubation. The essentials:
as §1

SMILES strings stand for the structures.

Take `Cc1cc(-c2[nH]c3ccc(OCc4ccc(N5CCOCC5)cc4)cc3c2C(C)C)ccn1` [Example 168, 4-(4-(((3-isopropyl-2-(2-methylpyridin-4-yl)-1H-indol-5-yl)oxy)methyl)phenyl)morpholine]: the results for the concentration for half-maximal inhibition (IC50) against human TLR7, at human TLR8 and against human TLR9 were 4930 nM, 134 nM and greater than 50000 nM, respectively.
The corresponding values for `Cc1cc(-c2[nH]c3ccc(OCc4cccnc4)cc3c2C(C)C)ccn1` [Example 169, 3-isopropyl-2-(2-methylpyridin-4-yl)-5-(pyridin-3-ylmethoxy)-1H-indole] are 200 nM, 181 nM and 28400 nM.
For `COc1ccc(-c2[nH]c3ccc(O[C@H]4CCNC4)cc3c2C(C)C)cc1OC` [Example 170, (S)-2-(3,4-dimethoxyphenyl)-3-isopropyl-5-(pyrrolidin-3-yloxy)-1H-indole], the IC50 – broadly, the concentration that inhibits the measured activity by half – at human TLR7 was determined as 83.9 nM; on human TLR8, 31.3 nM; against human TLR9, 1080 nM.
Turning to `COc1ccc(-c2[nH]c3ccc(OC4CCNCC4)cc3c2C(C)C)cc1OC` [Example 171, 2-(3,4-dimethoxyphenyl)-3-isopropyl-5-(piperidin-4-yloxy)-1H-indole], the results for the IC50 against human TLR7, against human TLR8 and on human TLR9 were 166 nM, 15.3 nM and 939 nM, respectively.
`CNCCOc1ccc2[nH]c(-c3ccnc(C)c3)c(C(C)C)c2c1` [Example 172, 2-((3-isopropyl-2-(2-methylpyridin-4-yl)-1H-indol-5-yl)oxy)-N-methylethan-1-amine]: the IC50 at human TLR7 was 119 nM; at human TLR8, 12.7 nM; on human TLR9, 3120 nM.
Regarding `COc1ccc(-c2[nH]c3ccc(OCCN4CCOCC4)cc3c2C(C)C)cc1OC` [Example 173, 4-(2-((2-(3,4-dimethoxyphenyl)-3-isopropyl-1H-indol-5-yl)oxy)ethyl)morpholine], the half-maximal inhibitory concentration (IC50) against human TLR7 came out at 682 nM; against human TLR8, 63.3 nM; at human TLR9, 5050 nM.
The corresponding values for `Cc1cc(-c2[nH]c3ccc(OCc4ccncc4)cc3c2C(C)C)ccn1` [Example 174, 3-isopropyl-2-(2-methylpyridin-4-yl)-5-(pyridin-4-ylmethoxy)-1H-indole] are 3590 nM, 3020 nM and greater than 50000 nM.
The matching figures for `Cc1cc(-c2[nH]c3ccc(OCCN4CCOCC4)cc3c2C(C)C)ccn1` [Example 175, 4-(2-((3-isopropyl-2-(2-methylpyridin-4-yl)-1H-indol-5-yl)oxy)ethyl)morpholine]: 439 nM, 17.5 nM and 9940 nM.
On to `Cc1cc(-c2[nH]c3ccc(OC4CCCNC4)cc3c2C(C)C)ccn1` (stereo not drawn) [Example 177, 3-isopropyl-2-(2-methylpyridin-4-yl)-5-(piperidin-3-yloxy)-1H-indole], for which the IC50 on human TLR7 was 27.8 nM; against human TLR8 it was 33.4 nM; on human TLR9 it was 1290 nM.
The matching figures for `Cc1cc(-c2[nH]c3ccc(OC4CCN(C)CC4)cc3c2C(C)C)ccn1` [Example 179, 3-isopropyl-5-((1-methylpiperidin-4-yl)oxy)-2-(2-methylpyridin-4-yl)-1H-indole]: 39.7 nM, 2.5 nM and 1440 nM.
For the compound `Cc1cc(-c2[nH]c3ccc(OCC4CCCNC4)cc3c2C(C)C)ccn1` (stereo not drawn) [Example 180, 3-isopropyl-2-(2-methylpyridin-4-yl)-5-(piperidin-3-ylmethoxy)-1H-indole], the 50% inhibitory concentration (IC50) on human TLR7 worked out at 37.7 nM; against human TLR8, 3.5 nM; against human TLR9, 1830 nM.
For the compound `Cc1cc(-c2[nH]c3ccc(OCC4CCCN(C)C4)cc3c2C(C)C)ccn1` (stereo not drawn) [Example 181, 3-isopropyl-5-((1-methylpiperidin-3-yl)methoxy)-2-(2-methylpyridin-4-yl)-1H-indole], the IC50 on human TLR7 worked out at 24.2 nM; against human TLR8, 5.9 nM; on human TLR9 it was 915 nM.
`CCc1c(-c2ccnc(C)c2)[nH]c2ccc(O[C@H]3CCNC3)cc12` [Example 182, (S)-3-ethyl-2-(2-methylpyridin-4-yl)-5-(pyrrolidin-3-yloxy)-1H-indole]: the IC50 was 400 nM against human TLR7, 19.2 nM at human TLR8 and 566 nM against human TLR9.
On to `CCc1c(-c2ccnc(C)c2)[nH]c2ccc(OCC3CCN(C)CC3)cc12` [Example 183, 3-ethyl-5-((1-methylpiperidin-4-yl)methoxy)-2-(2-methylpyridin-4-yl)-1H-indole], for which the figures for the IC50 against human TLR7, against human TLR8 and on human TLR9 were 131 nM, 12 nM and 512 nM, respectively.
The corresponding values for `Cc1cc(-c2[nH]c3ccc(OC4CCC(OC5CCNCC5)CC4)cc3c2C(C)C)ccn1` (stereo not drawn) [Example 184, 3-isopropyl-2-(2-methylpyridin-4-yl)-5-((4-(piperidin-4-yloxy)cyclohexyl)oxy)-1H-indole] are 51.9 nM, 54.6 nM and 5300 nM.
